{"source": "PubChem BioAssay AID318", "about": "(DTP/NCI, 2004)", "system": "BDF1 mice, P815 leukemia ip, survival T/C", "assay": "NCI In Vivo Anticancer Drug Screen. Data for tumor model P815 Mast Cell Leukemia (Ascitic) (intraperitoneal) in B6D2F1 (BDF1) mice", "conditions": "higher = longer survival", "experimental": "The antitumor activity of compounds was measured in mice bearing transplantable tumors. Survival or tumor size were measured and the results are expressed as the measurement made in the treated group (T) divided by the measurement made in the vehicle treated control group (C). The tumor model used in this assay is P815 Mast Cell Leukemia (Ascitic) (intraperitoneal) in B6D2F1 (BDF1) mice", "key": {"[1]": {"conditions": "endpoint: survival time, mean or median, dose: 31.3 mg/kg/injection, schedule: Q01DX010 (ip), vehicle: saline"}, "[2]": {"conditions": "endpoint: survival time, mean or median, dose: 62.5 mg/kg/injection, schedule: Q01DX010 (ip), vehicle: saline"}, "[3]": {"conditions": "endpoint: survival time, mean or median, dose: 10.0 mg/kg/injection, schedule: Q01DX010 (ip), vehicle: saline"}, "[4]": {"conditions": "endpoint: survival time, mean or median, dose: 20.0 mg/kg/injection, schedule: Q01DX010 (ip), vehicle: saline"}, "[5]": {"conditions": "endpoint: survival time, mean or median, dose: 40.0 mg/kg/injection, schedule: Q01DX010 (ip), vehicle: saline"}, "[6]": {"conditions": "endpoint: survival time, mean or median, dose: 5.0 mg/kg/injection, schedule: Q01DX010 (ip), vehicle: saline"}, "[7]": {"conditions": "endpoint: survival time, mean or median, dose: 12.0 mg/kg/injection, schedule: Q01DX010 (ip), vehicle: saline"}}, "note": "“And” between values parts separate entries of the source, which are not always exact repeats. Equal entries are not always repeated. Inconclusive results and toxic doses are left out.", "data": [{"smiles": "C=CC(CN1CC1)OC(C)=O", "note": "(stereo unspecified)", "values": [{"measurement": "T/C", "setting": "endpoint: survival time, mean or median, dose: 2.0 mg/kg/injection, schedule: Q01DX010 (ip), vehicle: saline", "result": "94 % of control"}, {"measurement": "T/C", "setting": "endpoint: survival time, mean or median, dose: 4.0 mg/kg/injection, schedule: Q01DX010 (ip), vehicle: saline", "result": "100 % of control"}, {"measurement": "T/C", "setting": "endpoint: survival time, mean or median, dose: 8.0 mg/kg/injection, schedule: Q01DX010 (ip), vehicle: saline", "result": "100 % of control"}]}, {"smiles": "O=C(Nc1cccc(C(=O)Nc2ccc(C3=NCCN3)cc2)c1)c1ccc(C2=NCCN2)cc1", "values": [{"measurement": "T/C", "setting": "endpoint: survival time, mean or median, dose: 54.0 mg/kg/injection, schedule: Q01DX010 (ip), vehicle: saline", "result": "112 % of control"}]}, {"smiles": "COc1ccc2c(c1OC)C(=O)O[C@@H]2[C@H]1c2c(cc3c(c2OC)OCO3)CCN1C", "values": [{"measurement": "T/C", "setting": "endpoint: survival time, mean or median, dose: 62.5 mg/kg/injection, schedule: Q01DX015 (ip), vehicle: carboxymethylcellulose (CMC)", "result": "101 % of control"}, {"measurement": "T/C", "setting": "endpoint: survival time, mean or median, dose: 125.0 mg/kg/injection, schedule: Q01DX015 (ip), vehicle: carboxymethylcellulose (CMC)", "result": "95 % of control"}, {"measurement": "T/C", "setting": "endpoint: survival time, mean or median, dose: 250.0 mg/kg/injection, schedule: Q01DX015 (ip), vehicle: carboxymethylcellulose (CMC)", "result": "96 % of control"}, {"measurement": "T/C", "setting": "endpoint: survival time, mean or median, dose: 500.0 mg/kg/injection, schedule: Q01DX015 (ip), vehicle: carboxymethylcellulose (CMC)", "result": "93 % of control"}]}, {"smiles": "O=C1CCC(N2C(=O)c3ccccc3C2=O)C(=O)N1", "note": "(stereo unspecified)", "values": [{"measurement": "T/C", "setting": "[1]", "result": "104 % of control"}, {"measurement": "T/C", "setting": "[2]", "result": "100 % of control"}, {"measurement": "T/C", "setting": "endpoint: survival time, mean or median, dose: 125.0 mg/kg/injection, schedule: Q01DX010 (ip), vehicle: saline", "result": "96 % of control"}, {"measurement": "T/C", "setting": "endpoint: survival time, mean or median, dose: 250.0 mg/kg/injection, schedule: Q01DX010 (ip), vehicle: saline", "result": "96 % of control"}]}, {"smiles": "Cn1c(N)nc2nc[nH]c2c1=S", "values": [{"measurement": "T/C", "setting": "[3]", "result": "106 % of control"}, {"measurement": "T/C", "setting": "[4]", "result": "100 % of control and 111 % of control"}, {"measurement": "T/C", "setting": "[5]", "result": "100 % of control"}, {"measurement": "T/C", "setting": "endpoint: survival time, mean or median, dose: 160.0 mg/kg/injection, schedule: Q01DX010 (ip), vehicle: saline", "result": "100 % of control"}]}, {"smiles": "O=C(O)c1[nH]c(=O)[nH]c(=O)c1F", "values": [{"measurement": "T/C", "setting": "endpoint: survival time, mean or median, dose: 13.0 mg/kg/injection, schedule: Q01DX015 (ip), vehicle: carboxymethylcellulose (CMC)", "result": "86 % of control"}]}, {"smiles": "Cc1nc(CON)cs1", "values": [{"measurement": "T/C", "setting": "endpoint: median survival time, dose: 50.0 mg/kg/injection, schedule: Q01DX015 (ip), vehicle: saline", "result": "90 % of control"}, {"measurement": "T/C", "setting": "endpoint: median survival time, dose: 100.0 mg/kg/injection, schedule: Q01DX015 (ip), vehicle: saline", "result": "94 % of control"}]}, {"smiles": "C[C@@H]1C[C@@H]([C@H](O)CC2CC(=O)NC(=O)C2)C(=O)[C@@H](C)C1", "values": [{"measurement": "T/C", "setting": "[6]", "result": "109 % of control and 118 % of control"}, {"measurement": "T/C", "setting": "[3]", "result": "104 % of control and 109 % of control"}, {"measurement": "T/C", "setting": "[4]", "result": "109 % of control and 118 % of control"}, {"measurement": "T/C", "setting": "[5]", "result": "118 % of control"}]}, {"smiles": "CC1CN=C(c2ccc(NC(=O)c3cccc(C(=O)Nc4ccc(C5=NCC(C)N5)cc4)c3)cc2)N1", "note": "(stereo unspecified)", "values": [{"measurement": "T/C", "setting": "[7]", "result": "112 % of control"}, {"measurement": "T/C", "setting": "endpoint: survival time, mean or median, dose: 18.0 mg/kg/injection, schedule: Q01DX010 (ip), vehicle: saline", "result": "104 % of control"}, {"measurement": "T/C", "setting": "endpoint: survival time, mean or median, dose: 27.0 mg/kg/injection, schedule: Q01DX010 (ip), vehicle: saline", "result": "112 % of control"}]}, {"smiles": "OCC1OC(n2cnc3c(=S)nc[nH]c32)C(O)C1O", "note": "(stereo unspecified)", "values": [{"measurement": "T/C", "setting": "[4]", "result": "104 % of control and 116 % of control"}, {"measurement": "T/C", "setting": "[5]", "result": "91 % of control and 108 % of control"}, {"measurement": "T/C", "setting": "endpoint: survival time, mean or median, dose: 80.0 mg/kg/injection, schedule: Q01DX010 (ip), vehicle: saline", "result": "95 % of control and 116 % of control"}]}, {"smiles": "O=c1[nH]cc(F)c(=O)[nH]1", "values": [{"measurement": "T/C", "setting": "endpoint: median survival time, dose: 80.0 mg/kg/injection, schedule: Q04DX003 (ip), vehicle: saline", "result": "118 % of control"}, {"measurement": "T/C", "setting": "[6]", "result": "150 % of control"}, {"measurement": "T/C", "setting": "endpoint: survival time, mean or median, dose: 5.0 mg/kg/injection, schedule: Q01DX015 (ip), vehicle: carboxymethylcellulose (CMC)", "result": "162 % of control"}, {"measurement": "T/C", "setting": "[3]", "result": "194 % of control and 150 % of control"}, {"measurement": "T/C", "setting": "endpoint: survival time, mean or median, dose: 10.0 mg/kg/injection, schedule: Q01DX015 (ip), vehicle: carboxymethylcellulose (CMC)", "result": "174 % of control"}, {"measurement": "T/C", "setting": "endpoint: survival time, mean or median, dose: 15.0 mg/kg/injection, schedule: Q01DX015 (ip), vehicle: carboxymethylcellulose (CMC)", "result": "199 % of control and 174 % of control"}, {"measurement": "T/C", "setting": "[4]", "result": "195 % of control and 216 % of control"}, {"measurement": "T/C", "setting": "endpoint: survival time, mean or median, dose: 20.0 mg/kg/injection, schedule: Q01DX015 (ip), vehicle: carboxymethylcellulose (CMC)", "result": "189 % of control"}, {"measurement": "T/C", "setting": "[5]", "result": "95 % of control and 111 % of control"}]}, {"smiles": "C[C@H]1C(=O)O[C@@H]2CCN3CC=C(COC(=O)[C@](C)(O)[C@@]1(C)O)[C@H]23", "values": [{"measurement": "T/C", "setting": "endpoint: survival time, mean or median, dose: 3.13 mg/kg/injection, schedule: Q01DX010 (ip), vehicle: saline", "result": "94 % of control and 100 % of control"}, {"measurement": "T/C", "setting": "endpoint: survival time, mean or median, dose: 6.25 mg/kg/injection, schedule: Q01DX010 (ip), vehicle: saline", "result": "100 % of control and 105 % of control"}, {"measurement": "T/C", "setting": "endpoint: survival time, mean or median, dose: 12.5 mg/kg/injection, schedule: Q01DX010 (ip), vehicle: saline", "result": "88 % of control and 94 % of control"}, {"measurement": "T/C", "setting": "endpoint: survival time, mean or median, dose: 25.0 mg/kg/injection, schedule: Q01DX010 (ip), vehicle: saline", "result": "100 % of control"}]}, {"smiles": "Nc1ncnc2[nH]ncc12", "values": [{"measurement": "T/C", "setting": "endpoint: survival time, mean or median, dose: 1.5 mg/kg/injection, schedule: Q01DX010 (ip), vehicle: saline", "result": "100 % of control"}, {"measurement": "T/C", "setting": "endpoint: survival time, mean or median, dose: 3.0 mg/kg/injection, schedule: Q01DX010 (ip), vehicle: saline", "result": "100 % of control"}, {"measurement": "T/C", "setting": "endpoint: survival time, mean or median, dose: 6.0 mg/kg/injection, schedule: Q01DX010 (ip), vehicle: saline", "result": "100 % of control and 104 % of control"}, {"measurement": "T/C", "setting": "[7]", "result": "100 % of control and 109 % of control"}]}, {"smiles": "CN=C(NC)c1ccc(NC(=O)Nc2ccc(NC(=O)Nc3ccc(C(=NC)NC)cc3)cc2)cc1", "values": [{"measurement": "T/C", "setting": "endpoint: survival time, mean or median, dose: 13.3 mg/kg/injection, schedule: Q01DX010 (ip), vehicle: saline", "result": "108 % of control"}, {"measurement": "T/C", "setting": "[4]", "result": "112 % of control"}]}, {"smiles": "CCn1cnc2c(=S)nc[nH]c21", "values": [{"measurement": "T/C", "setting": "endpoint: survival time, mean or median, dose: 15.6 mg/kg/injection, schedule: Q01DX010 (ip), vehicle: saline", "result": "94 % of control"}, {"measurement": "T/C", "setting": "[1]", "result": "98 % of control and 102 % of control"}, {"measurement": "T/C", "setting": "[2]", "result": "97 % of control"}]}]}
